From patent US5242942A, “Anticonvulsant fructopyranose cyclic sulfites and sulfates” (McNeilab, Inc., priority 1992, dated 1993)

How the values were obtained:
[1] = system: tonic extensor seizure; experiment: maximal electroshock test (MES); format: in vivo, mouse (albino male CRS-CD1); details: PO, mouse, 4 hr, read-out: % Block (MES Test, mouse)
Description: The compounds of formula (I) are particularly useful as anticonvulsant agents in mammals including humans. The anticonvulsant activity of the subject compounds was determined using a standard "maximal electroshock test" (MES). In this test, activity is indicated by a block of the […] extensor seizure caused by application of an electric shock to mice via corneal electrodes, as described by Swinyard et al. in J. Pharmacol. Expt. Ther. 1952, 106, 319, and recorded as % block. A more recent description of current anticonvulsant drug screening is given by Swinyard in Epilepsia 1978, 19, 409. The anticonvulsant activity of the compounds of this invention tested according to the Swinyard 1952 method is shown in the following Table I.
In the test, albino male CRS-CD1 mice weighing between 18-25 g were used in all experiments (obtained from Charles River). They were allowed food and water ad libitum and were used only once. The electroshock apparatus and the corneal electrodes were purchased from Wahlquist Instrument Company, Salt Lake City, Utah.
Maximal electroshock seizures were induced by the delivery of a 60 Hertz (Hz) current of 50 milliamps (mA) intensity to the mouse through corneal electrodes for 0.2 seconds as originally described by Swinyard et al. (1952). This stimulus intensity is approximately 4 to 6 times the current producing 100% tonic extensor convulsions. During the validation of the MES test, the duration of the various seizure components following maximal electroshock were measured as follows: hindleg tonic flexion was measured from the time of the application of the stimulus to the time of onset of hindleg tonic extension (i.e. when the hindlegs deviate by greater than an angle of 90° from the torso), hindleg tonic extensor was measured from the time of extensor thrust to the onset of generalized clonus, and terminal clonus was measured from the beginning to the end of bilateral rhythmic clonic jerking. Mortality was also recorded. The duration of each seizure component agreed well with the values previously reported by Tedeschi et al. in J. Pharmacol. Expt. Ther. 1955, 116, 107. The corneal electrodes were concave so that saline could be applied to the electrodes to reduce mortality. If this procedure is followed, mortality should always be less than 40% in control mice. Thus, at an electroshock stimulus of 60 Hz, 50 mA and 0.2 seconds duration, the order of convulsive components and the percentage of control animals displaying the behaviors should be as follows: tonic flexion (100%), tonic extension (100%) and clonus (100%) with less than 40% mortality.
For testing compounds, the abolition of the tonic extensor component was the endpoint. Animals were dosed orally (PO) with either vehicle or test drug and at a specified time were given a maximal electric shock through corneal electrodes blotted with saline (as described above). A minimum of 10 animals were used per group and the percentage of animals in the group without tonic hindlimb extension recorded. Determination of ED50 values (that dose of drug inhibiting 50% of the tonic extensor seizures) is shown below in Table I.

[2] = rat diuresis study; format: in vivo, rat (male Wistar); details: average of five animals; for Water Intake: control 15.0; for Urine Output: control 17.6
Description: Evidence for the inhibition of carbonic anhydrase by compounds of the formula (I) can also be obtained by a diuresis study, such as described by A. Weiner in Goodman and Gilman's The Pharmacological Basis of Therapeutics, 8th ed.; Goodman Gilman, A.; Rall, T. W.; Nies, A. S.; Taylor, P., Eds.; Pergamon Press: New York, 1990; pp 716-718. An increase in urine akalinity accompanied with an increase in water intake and urine output provides an indirect indication of carbonic anhydrase inhibition activity. Male Wistar rats having a weight of 250-300 g were dosed orally (PO) and housed in cages that allowed for the quantitative measure of fluid intake and urine output. Water intake and urine output were measured at 24 hours versus control, whereas urine pH, obtained via pH meter, was measured at 4 and 24 hours versus control. The results of this study, which are the average of five animals, are reported below in Table III. […] Such data is also an indication of the usefulness of the compounds of formula (I) as diuretics in the treatment of hypertension, congestive heart failure and other types of edema. The determination of suitable dosages for such compounds for the treatment of hypertension and congestive heart failure and other types of edema is within the skill of the art.

[3] = system: Total Acid Output; experiment: pylorus-ligated rat test, gastric antisecretory activity; format: in vivo, rat (male Charles River Sprague-Dawley derived); details: IP, 200 mg/kg
Description: The gastric antisecretory activity of the compounds shown in Table II was determined by the pylorus-ligated rat test described by Shay et al. in Gastroenterol. 1954, 26, 906. In this method, male Charles River Sprague-Dawley derived rats weighing 150-300 grams were deprived of food but not water for 18-24 hours prior to use. Water was withheld during the experiment, however. The rats were weighed, lightly anesthetized with ether and the pylorus ligated according to the method of Shay et al., supra. The treatment or vehicle control was then administered intraperitoneally (IP) or orally (PO). When administered by the IP route, the administration was done 30 minutes before ligation. When administered by the PO route, the administration was done prior to ligation (about 1/2 to 3 hours before). Rats were housed two per cage and sacrificed with carbon dioxide 3 hours after ligation. Their stomachs were removed, rinsed, and contents emptied into a graduated centrifuge tube. The tubes were centrifuged, the volume of gastric juice was recorded, and any samples obviously contaminated by feces, food or blood were eliminated. A 1 mL aliquot of gastric juice was titrated with 0.1N NaOH to a pH of 7.0-7.4. The volume of gastric juice secreted, the acid concentration, and the product of the volume times the concentration, i.e. the total amount of acid secreted, were measured. The total acid output was calculated by multiplying the volume of gastric juices collected times the hydrogen ion concentration (amount of NaOH added to a sample to reach a pH of 7.0-7.4) and dividing that value by 10. The mean value of the total acid output for a control group of rats was then subtracted from the mean value of the total acid output for the group of rats tested at the same dose. That value was then divided by the mean value of total acid output for the control group and the resulting number was multiplied by 100 to provide a Percent Inhibition value, which values are reported in Table II. The […] was determined statistically as the dose at which a 50% inhibition would be realized.

Cc1ccc(S(=O)(=O)N=S2O[C@@H]3[C@@H](CO[C@@]4(COS(N)(=O)=O)OC(C)(C)O[C@@H]34)O2)cc1 (stereo partly drawn) [Example 19, 2,3-O-(1-Methylethylidene)-4,5-O-[N-(4-methylbenzenesulfonyl)imidosulfinyl]-β-D-fructopyranose Sulfamate]
responders at 300 mg/kg [1]: 80%

CC1(C)O[C@H]2[C@@H]3OS(=O)(=O)O[C@@H]3CO[C@@]2(COS(=O)(=O)NC2CCC2)O1 [Example 10, 2,3-O-(1-Methylethylidene)-4,5-O-sulfonyl-β-D-fructopyranose Cyclobutylsulfamate]
responders at 10 mg/kg [1]: 90%

CC1(C)O[C@H]2[C@@H]3O[S@@](=O)O[C@@H]3CO[C@@]2(COS(N)(=O)=O)O1 [Example 16, (S)-2,3-O-(1-Methylethylidene)-4,5 -O-sulfinyl-β-D-fructopyranose Sulfamate]
responders at 75 mg/kg [1]: 40%

CC1(C)O[C@H]2[C@@H]3OS(=O)(=O)O[C@@H]3CO[C@@]2(COS(=O)(=O)NCc2ccccc2)O1 [Example 8, 2,3-O-(1-Methylethylidene)-4,5-O-sulfonyl-β-D-fructopyranose Phenylmethylsulfamate]
responders at 75 mg/kg [1]: 100%

CCNS(=O)(=O)OC[C@@]12OC[C@H]3OS(=O)(=O)O[C@H]3[C@@H]1OC(C)(C)O2 [Example 5, 2,3-O-(1-Methylethylidene)-4,5-O-sulfonyl-β-D-fructopyranose Ethylsulfamate]
responders at 10 mg/kg [1]: 100%
Urine pH ([2]; 1.2 mg/kg PO, 4 hours, control 6.98): 9.03
Urine pH ([2]; 1.2 mg/kg PO, 24 hours, control 6.43): 6.41
Water Intake ([2]; 1.2 mg/kg PO, 24 hours): 15.8 mL
Urine Output ([2]; 1.2 mg/kg PO, 24 hours): 19.9 mL

CCCCCCCCNS(=O)(=O)OC[C@@]12OC[C@H]3OS(=O)(=O)O[C@H]3[C@@H]1OC(C)(C)O2 [Example 6, 2,3-O-(1-Methylethylidene)-4,5-O-sulfonyl-β-D-fructopyranose Octylsulfamate]
responders at 75 mg/kg [1]: 100%

CCC1(CC)O[C@H]2[C@@H]3OS(=O)(=O)O[C@@H]3CO[C@@]2(COS(N)(=O)=O)O1 [Example 18, 2,3-O-(1-Ethylpropylidene)-4,5-O-sulfonyl-β-D-fructopyranose Sulfamate]
responders at 75 mg/kg [1]: 100%

CC1(C)O[C@H]2[C@@H]3OS(=O)(=O)O[C@@H]3CO[C@@]2(COS(=O)(=O)N=[N+]=[N-])O1 [Example 15, 2,3-O-(1-Methylethylidene)-4,5-O-sulfonyl-β-D-fructopyranose Azidosulfate]
Percent Inhibition of Total Acid Output [3]: 96%
responders at 35 mg/kg [1]: 100%

C=CCNS(=O)(=O)OC[C@@]12OC[C@H]3OS(=O)(=O)O[C@H]3[C@@H]1OC(C)(C)O2 [Example 7, 2,3-O-(1-Methylethylidene)-4,5-O-sulfonyl-β-D-fructopyranose 2-Propenylsulfamate]
responders at 10 mg/kg [1]: 70%

Cc1ccc(S(=O)(=O)N=S2(=O)O[C@@H]3[C@@H](CO[C@@]4(COS(N)(=O)=O)OC(C)(C)O[C@@H]34)O2)cc1 (stereo partly drawn) [Example 20, 2,3-O-(1-Methylethylidene)-4,5-O-[N-(4-methylbenzenesulfonyl)imidosulfonyl]-β-D-fructopyranose Sulfamate]
responders at 300 mg/kg [1]: 75%

CCCCNS(=O)(=O)OC[C@@]12OC[C@H]3OS(=O)(=O)O[C@H]3[C@@H]1OC(C)(C)O2 [Example 4, 2,3-O-(1-Methylethylidene)-4,5-O-sulfonyl-β-D-fructopyranose Butylsulfamate]
responders at 35 mg/kg [1]: 100%

CNS(=O)(=O)OC[C@@]12OC[C@H]3OS(=O)(=O)O[C@H]3[C@@H]1OC(C)(C)O2 [Example 3, 2,3-O-(1-Methylethylidene)-4,5-O-sulfonyl-β-D-fructopyranose Methylsulfamate]
responders at 10 mg/kg [1]: 100%
Urine pH ([2]; 2.7 mg/kg PO, 4 hours, control 6.98): 9.02
Urine pH ([2]; 2.7 mg/kg PO, 24 hours, control 6.43): 6.78
Water Intake ([2]; 2.7 mg/kg PO, 24 hours): 23.6 mL
Urine Output ([2]; 2.7 mg/kg PO, 24 hours): 28.8 mL

CC1(C)O[C@H]2[C@@H]3O[S@](=O)O[C@@H]3CO[C@@]2(COS(N)(=O)=O)O1 [Example 17, (R)-2,3-O-(1-Methylethylidene)-4,5-O-sulfinyl-β-D-fructopyranose Sulfamate]
responders at 35 mg/kg [1]: 90%

CC1(C)O[C@H]2[C@@H]3OS(=O)(=O)O[C@@H]3CO[C@@]2(COS(=O)(=O)NCC(F)(F)F)O1 [Example 12, 2,3-O-(1-Methylethylidene)-4,5-O-sulfonyl-β-D-fructopyranose (2,2,2-Trifluoroethyl)sulfamate]
responders at 10 mg/kg [1]: 40%

CC1(C)O[C@@H]2[C@H]3OS(=O)(=O)O[C@H]3CO[C@]2(COS(N)(=O)=O)O1 [Example 2, 2,3-O-(1-Methylethylidene)-4,5-O-sulfonyl-β-L-fructopyranose Sulfamate]
responders at 75 mg/kg [1]: 80%

NS(=O)(=O)OC[C@@]12OC[C@H]3OS(=O)(=O)O[C@H]3[C@@H]1OC1(CCCCC1)O2 [Example 21, 2,3-O-(Cyclohexylidene)-4,5-O-sulfonyl-β-D-fructopyranose Sulfamate]
Percent Inhibition of Total Acid Output [3]: 27%

CN(C)S(=O)(=O)OC[C@@]12OC[C@H]3OS(=O)(=O)O[C@H]3[C@@H]1OC(C)(C)O2 [Example 13, 2,3-O-(1-Methylethylidene)-4,5-O-sulfonyl-β-D-fructopyranose Dimethylsulfamate]
responders at 10 mg/kg [1]: 70%
Urine pH ([2]; 2.1 mg/kg PO, 4 hours, control 6.98): 8.93
Urine pH ([2]; 2.1 mg/kg PO, 24 hours, control 6.43): 6.81
Water Intake ([2]; 2.1 mg/kg PO, 24 hours): 21 mL
Urine Output ([2]; 2.1 mg/kg PO, 24 hours): 23.2 mL

CCN(CC)S(=O)(=O)OC[C@@]12OC[C@H]3OS(=O)(=O)O[C@H]3[C@@H]1OC(C)(C)O2 [Example 14, 2,3-O-(1-Methylethylidene)-4,5-O-sulfonyl-β-D-fructopyranose Diethylsulfamate]
responders at 10 mg/kg [1]: 10%
